Reference: the supplement of paper PMC10307832

compound: CC1(C)CNc2cc(NC(=O)c3cccnc3NCc3ccncc3)ccc21 [Motesanib] + C[C@@H](Oc1cc(-c2cnn(C3CCNCC3)c2)cnc1N)c1c(Cl)ccc(F)c1Cl [Crizotinib] (partner 1 µM); experiment: relative viability (nuclei count vs DMSO), 5 days (fraction); higher = more cells survive; details: first compound 0.1 µM
Summary of the method: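 After 5 days of treatment, lung cancer cells in 1536-well plates were fixed and stained in a single step (final 0.05% Triton X-100, 1% formaldehyde, 1 ug/ml Hoechst) and their nuclei counted on 4× images. Treatment had been applied by pin tool the day after seeding as one drug alone or as a fixed anchor-drug dose with five library-drug doses (not always all listed) in √10 steps. Relative viability is the nuclei count of treated wells divided by that of vehicle wells, and values are medians of duplicate plates.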

**Q.** With LOU-NH91 as the cell line, how does the relative viability read?
**A.** The relative viability was 0.743.

**Q.** For NCI-H2405, which relative viability is on record?
**A.** Its relative viability is 0.875.

**Q.** Which relative viability does the source give for HOP-62 here?
**A.** The relative viability was 0.859.

**Q.** HCC-44 was tested. Which relative viability did it give?
**A.** The relative viability was 0.801.

**Q.** Which relative viability does the source give for LU99A here?
**A.** Its relative viability is 0.493.

**Q.** With BEN as the cell line, how does the relative viability read?
**A.** Its relative viability is 0.803.

**Q.** With HARA as the cell line, how does the relative viability read?
**A.** Its relative viability is 1.06.

**Q.** Which relative viability does the source give for HCC-78 here?
**A.** The relative viability was 0.37.

**Q.** Which relative viability does the source give for NCI-H322M here?
**A.** Its relative viability is 1.04.

**Q.** Which relative viability does the source give for LCLC-97TM1 here?
**A.** Its relative viability is 0.373.

**Q.** Which relative viability does the source give for NCI-H2009 here?
**A.** Its relative viability is 0.928.

**Q.** A-427 was tested. Which relative viability did it give?
**A.** The relative viability was 0.983.

**Q.** For NCI-H661, which relative viability is on record?
**A.** The relative viability was 1.09.

**Q.** NCI-H1734 was tested. Which relative viability did it give?
**A.** Its relative viability is 0.654.

**Q.** Which relative viability does the source give for NCI-H460 here?
**A.** The relative viability was 0.945.

**Q.** Which relative viability does the source give for NCI-H2347 here?
**A.** The relative viability was 0.715.

**Q.** Which relative viability does the source give for SK-LU-1 here?
**A.** The relative viability was 0.826.

**Q.** With 201T as the cell line, how does the relative viability read?
**A.** The relative viability was 1.04.

**Q.** How did the relative viability turn out when NCI-H1915 was run?
**A.** The relative viability was 0.875.

**Q.** For HCC-827, which relative viability is on record?
**A.** The relative viability was 0.998.

**Q.** Which relative viability does the source give for LXF-289 here?
**A.** Its relative viability is 0.82.

same assay, conditions: first compound 0.3162 µM

**Q.** Which relative viability does the source give for NCI-H2126 here?
**A.** Its relative viability is 1.03.

**Q.** For EMC-BAC-2, which relative viability is on record?
**A.** Its relative viability is 0.739.

**Q.** For NCI-H2085, which relative viability is on record?
**A.** The relative viability was 0.807.

**Q.** Which relative viability does the source give for HCC-366 here?
**A.** Its relative viability is 0.556.

**Q.** For NCI-H1666, which relative viability is on record?
**A.** Its relative viability is 0.958.

**Q.** How did the relative viability turn out when NCI-H596 was run?
**A.** The relative viability was 1.12.

**Q.** LK-2 was tested. Which relative viability did it give?
**A.** The relative viability was 0.249.

**Q.** NCI-H2087 was tested. Which relative viability did it give?
**A.** The relative viability was 0.878.

**Q.** With SK-MES-1 as the cell line, how does the relative viability read?
**A.** The relative viability was 1.05.

**Q.** H3255 was tested. Which relative viability did it give?
**A.** Its relative viability is 0.838.

**Q.** Which relative viability does the source give for COR-L23 here?
**A.** The relative viability was 0.643.

**Q.** How did the relative viability turn out when COR-L 105 was run?
**A.** Its relative viability is 0.73.

**Q.** LOU-NH91 was tested. Which relative viability did it give?
**A.** Its relative viability is 0.769.

**Q.** With NCI-H2405 as the cell line, how does the relative viability read?
**A.** The relative viability was 0.864.

**Q.** For HOP-62, which relative viability is on record?
**A.** Its relative viability is 1.05.

**Q.** How did the relative viability turn out when HCC-44 was run?
**A.** Its relative viability is 0.765.

**Q.** With LU99A as the cell line, how does the relative viability read?
**A.** The relative viability was 0.549.

**Q.** Which relative viability does the source give for BEN here?
**A.** The relative viability was 0.928.

**Q.** For HARA, which relative viability is on record?
**A.** Its relative viability is 1.1.

**Q.** Which relative viability does the source give for HCC-78 here?
**A.** The relative viability was 0.326.

**Q.** How did the relative viability turn out when NCI-H322M was run?
**A.** The relative viability was 0.974.

**Q.** For LCLC-97TM1, which relative viability is on record?
**A.** Its relative viability is 0.469.

**Q.** NCI-H2009 was tested. Which relative viability did it give?
**A.** Its relative viability is 1.01.

**Q.** For A-427, which relative viability is on record?
**A.** Its relative viability is 0.888.

**Q.** With NCI-H661 as the cell line, how does the relative viability read?
**A.** Its relative viability is 0.978.

**Q.** How did the relative viability turn out when NCI-H1734 was run?
**A.** The relative viability was 0.68.

**Q.** For NCI-H460, which relative viability is on record?
**A.** Its relative viability is 0.927.

**Q.** With NCI-H2347 as the cell line, how does the relative viability read?
**A.** Its relative viability is 0.745.

**Q.** For SK-LU-1, which relative viability is on record?
**A.** The relative viability was 0.897.

**Q.** For 201T, which relative viability is on record?
**A.** The relative viability was 1.04.

**Q.** With NCI-H1915 as the cell line, how does the relative viability read?
**A.** The relative viability was 0.927.

**Q.** HCC-827 was tested. Which relative viability did it give?
**A.** The relative viability was 0.955.

**Q.** Which relative viability does the source give for LXF-289 here?
**A.** Its relative viability is 0.842.

**Q.** How did the relative viability turn out when NCI-H23 was run?
**A.** The relative viability was 0.497.

same assay, conditions: first compound 1 µM

**Q.** For NCI-H2126, which relative viability is on record?
**A.** The relative viability was 1.09.

**Q.** Which relative viability does the source give for EMC-BAC-2 here?
**A.** Its relative viability is 0.674.

**Q.** For NCI-H2085, which relative viability is on record?
**A.** The relative viability was 0.756.

**Q.** How did the relative viability turn out when HCC-366 was run?
**A.** The relative viability was 0.596.

**Q.** Which relative viability does the source give for NCI-H1666 here?
**A.** Its relative viability is 1.03.

**Q.** With NCI-H596 as the cell line, how does the relative viability read?
**A.** The relative viability was 1.05.

**Q.** For LK-2, which relative viability is on record?
**A.** Its relative viability is 0.217.

**Q.** For NCI-H2087, which relative viability is on record?
**A.** The relative viability was 0.93.

**Q.** How did the relative viability turn out when SK-MES-1 was run?
**A.** The relative viability was 0.977.

**Q.** How did the relative viability turn out when H3255 was run?
**A.** Its relative viability is 0.863.

**Q.** Which relative viability does the source give for COR-L23 here?
**A.** The relative viability was 0.547.

**Q.** With COR-L 105 as the cell line, how does the relative viability read?
**A.** Its relative viability is 0.756.

**Q.** LOU-NH91 was tested. Which relative viability did it give?
**A.** The relative viability was 0.729.

**Q.** Which relative viability does the source give for NCI-H2405 here?
**A.** The relative viability was 0.905.

**Q.** With HOP-62 as the cell line, how does the relative viability read?
**A.** Its relative viability is 0.932.

**Q.** For HCC-44, which relative viability is on record?
**A.** The relative viability was 0.901.

**Q.** How did the relative viability turn out when LU99A was run?
**A.** The relative viability was 0.574.

**Q.** For BEN, which relative viability is on record?
**A.** The relative viability was 0.978.

**Q.** HARA was tested. Which relative viability did it give?
**A.** Its relative viability is 1.04.

**Q.** With HCC-78 as the cell line, how does the relative viability read?
**A.** Its relative viability is 0.384.

**Q.** Which relative viability does the source give for NCI-H322M here?
**A.** The relative viability was 0.946.

**Q.** With LCLC-97TM1 as the cell line, how does the relative viability read?
**A.** Its relative viability is 0.486.

**Q.** How did the relative viability turn out when NCI-H2009 was run?
**A.** Its relative viability is 0.943.

**Q.** A-427 was tested. Which relative viability did it give?
**A.** Its relative viability is 1.04.

**Q.** How did the relative viability turn out when NCI-H661 was run?
**A.** Its relative viability is 1.1.
